The record followed here is BindingDB's records for doi:10.1016/s0167-0115(98)00050-0 (Uppsala University, 1998).

pKi: −log10 of the molar value.

Assay [1] addresses Pancreatic polypeptide receptor 1 (Sus scrofa, UniProt O97505).
Assay [2] deals with Neuropeptide Y receptor type 4 (Homo sapiens, UniProt P50391).
Assay [3] has as its target Neuropeptide Y receptor type 4 (Rattus norvegicus, UniProt Q63447).

Sequence of Pancreatic polypeptide receptor 1 (O97505 whole entry): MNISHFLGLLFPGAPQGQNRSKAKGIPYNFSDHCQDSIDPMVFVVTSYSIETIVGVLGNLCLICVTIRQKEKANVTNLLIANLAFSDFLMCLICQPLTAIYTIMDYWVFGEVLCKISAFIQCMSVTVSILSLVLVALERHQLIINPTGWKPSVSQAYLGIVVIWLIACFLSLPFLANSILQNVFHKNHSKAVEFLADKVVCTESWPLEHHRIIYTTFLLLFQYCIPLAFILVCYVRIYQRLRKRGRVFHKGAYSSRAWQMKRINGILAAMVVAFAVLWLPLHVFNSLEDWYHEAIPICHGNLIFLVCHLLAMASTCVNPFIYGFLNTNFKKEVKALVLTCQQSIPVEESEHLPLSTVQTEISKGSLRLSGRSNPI
Sequence of Neuropeptide Y receptor type 4 (Rattus norvegicus, UniProt Q63447) (Q63447 whole entry): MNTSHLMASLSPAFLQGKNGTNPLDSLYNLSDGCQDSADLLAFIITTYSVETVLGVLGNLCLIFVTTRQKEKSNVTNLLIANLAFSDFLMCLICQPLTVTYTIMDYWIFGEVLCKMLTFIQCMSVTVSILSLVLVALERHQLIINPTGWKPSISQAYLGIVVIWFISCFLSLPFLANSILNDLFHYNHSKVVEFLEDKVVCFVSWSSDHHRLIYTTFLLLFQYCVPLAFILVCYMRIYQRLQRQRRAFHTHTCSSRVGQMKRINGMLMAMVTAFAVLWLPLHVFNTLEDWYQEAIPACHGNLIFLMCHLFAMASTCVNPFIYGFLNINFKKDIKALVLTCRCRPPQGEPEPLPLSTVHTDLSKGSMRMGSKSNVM
Sequence of Neuropeptide Y receptor type 4 (Homo sapiens, UniProt P50391) (P50391 whole entry C240R): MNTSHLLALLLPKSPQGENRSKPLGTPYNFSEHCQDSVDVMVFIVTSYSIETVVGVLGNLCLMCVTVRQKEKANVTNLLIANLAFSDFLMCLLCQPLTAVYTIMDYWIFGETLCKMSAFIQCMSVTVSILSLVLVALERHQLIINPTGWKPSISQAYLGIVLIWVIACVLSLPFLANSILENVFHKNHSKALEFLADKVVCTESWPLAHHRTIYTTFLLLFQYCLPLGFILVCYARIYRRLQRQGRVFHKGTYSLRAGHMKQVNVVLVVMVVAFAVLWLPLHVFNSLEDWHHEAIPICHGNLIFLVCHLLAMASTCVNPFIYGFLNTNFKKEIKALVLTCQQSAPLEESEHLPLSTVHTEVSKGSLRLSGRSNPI

Usually pKi stands for −log10 of the Ki, conventionally taken in molar units. For `CC[C@H](C)[C@H](NC(=O)[C@H](Cc1ccc(O)cc1)NC(=O)[C@H](CCCNC(=N)N)NC(=O)[C@H](CCCNC(=N)N)NC(=O)[C@H](CC(C)C)NC(=O)[C@H](CCC(N)=O)NC(=O)[C@@H](NC(=O)[C@H](CCC(=O)O)NC(=O)[C@H](Cc1ccc(O)cc1)NC(=O)[C@H](CCC(N)=O)NC(=O)[C@H](C)NC(=O)[C@H](CCCNC(=N)N)NC(=O)[C@H](CCC(N)=O)NC(=O)[C@H](CCC(=O)O)NC(=O)[C@H](Cc1c[nH]cn1)NC(=O)[C@@H](NC(=O)[C@H](C)NC(=O)[C@H](Cc1ccc(O)cc1)NC(=O)[C@H](CC(=O)O)NC(=O)CNC(=O)[C@@H]1CCCN1C(=O)[C@H](Cc1ccc(O)cc1)NC(=O)[C@H](CCSC)NC(=O)[C@@H]1CCCN1C(=O)[C@H](CCC(=O)O)NC(=O)[C@H](CC(C)C)NC(=O)[C@@H]1CCCN1C(=O)[C@H](C)N)[C@@H](C)O)[C@@H](C)O)C(=O)N[C@@H](CC(N)=O)C(=O)N[C@H](C(=O)N[C@@H](CC(C)C)C(=O)N[C@H](C(=O)N[C@@H](CCCNC(=N)N)C(=O)N1CCC[C@H]1C(=O)N[C@@H](CCCNC(=N)N)C(=O)N[C@@H](Cc1ccc(O)cc1)C(N)=O)[C@@H](C)O)[C@@H](C)O` [NSC_41735], the pKi in assay [1] was 10.36; in assay [2] it was 10.15; in assay [3] it was 11.57.

In assay [1], `CC[C@H](C)[C@H](NC(=O)[C@H](Cc1ccc(O)cc1)NC(=O)[C@H](CCCNC(=N)N)NC(=O)[C@H](CCCNC(=N)N)NC(=O)[C@H](CC(C)C)NC(=O)[C@H](CC(=O)O)NC(=O)[C@H](C)NC(=O)[C@H](C)NC(=O)[C@H](Cc1ccc(O)cc1)NC(=O)[C@H](CCC(N)=O)NC(=O)[C@H](C)NC(=O)[C@H](CCSC)NC(=O)[C@H](CCC(N)=O)NC(=O)[C@H](CCC(=O)O)NC(=O)[C@@H]1CCCN1C(=O)[C@@H](NC(=O)[C@H](C)NC(=O)[C@H](CC(N)=O)NC(=O)[C@H](CC(=O)O)NC(=O)CNC(=O)[C@@H]1CCCN1C(=O)[C@H](Cc1ccc(O)cc1)NC(=O)[C@@H](NC(=O)[C@@H]1CCCN1C(=O)[C@H](CCC(=O)O)NC(=O)[C@H](CC(C)C)NC(=O)[C@@H]1CCCN1C(=O)[C@H](C)N)C(C)C)[C@@H](C)O)C(=O)N[C@@H](CC(N)=O)C(=O)N[C@@H](CCSC)C(=O)N[C@@H](CC(C)C)C(=O)N[C@H](C(=O)N[C@@H](CCCNC(=N)N)C(=O)N1CCC[C@H]1C(=O)N[C@@H](CCCNC(=N)N)C(=O)N[C@@H](Cc1ccc(O)cc1)C(N)=O)[C@@H](C)O` [CAS_59763-91-6] gave a pKi of 10.51.

“H-APLEPEYPGDNATPEQMAQYAAELRRYINMLTRPRY-NH2 [CAS_59763-91-6]”: the pKi was 10.89 in assay [1], 10.51 in assay [2] and 11.22 in assay [3].
